The source of these data is paper PMC11999338, “Factor XI localization in human deep venous thrombus and function of activated factor XI on venous thrombus formation and hemostasis” (Research and Practice in Thrombosis and Haemostasis, 2025).

For one series, the system named is skin bleeding. As to the kind of experiment: Rabbit skin bleeding time and volume. Particulars: rabbits; for bleeding time / bleeding volume: skin incision 90 minutes after oral administration, ONO-1600586 5, 15, 50 mg/kg, rivaroxaban 1.5, 5, 15 mg/kg. In kind it is in vivo. The method, then: The protocols of the venous thrombosis and skin bleeding models in rabbits were as follows (Supplementary Figure 2). First, fasting rabbits were orally administered a solvent as a control (n = 10), a FXIa inhibitor (ONO-1600586, 5 mg/kg, n = 10; 15 mg/kg, n = 10; and 50 mg/kg, n = 11), or a FXa inhibitor (rivaroxaban, 1.5 mg/kg, 5 mg/kg, and 15 mg/kg, n = 10 each) using a Nelaton catheter of 5 mm diameter (IZUMO Health Co, Ltd) 90 minutes before thrombus formation. […] Additional anesthesia with one-third amount of the above-mentioned mixture of drugs was administered 80 minutes after the first injection, and all surgical operations proceeded under aseptic conditions. Ninety minutes after administering the solvent, rivaroxaban (1.5, 5, and 15 mg/kg), and ONO-1600586 (5, 15, and 50 mg/kg), skin bleeding was induced using 2 lines of 3 cm length incisions on both legs of the rabbit. Next, wet Kimwipes (Kimberly-Clark Corp) were placed on the injured lesions, and the bleeding time was measured. To measure the bleeding volume, we collected the Kimwipes into a falcon tube filled with 20 mL of saline each, 1 to 2 minutes for 30 minutes, and then removed the Kimwipes. The collected blood was centrifuged at 900 × g for 5 minutes at room temperature, and the supernatant was discarded. One milliliter of distilled water was added to the pellet and then hemolyzed. The bleeding volume was estimated using a spectrophotometer at 540 nm (SpectraMax 190 Microplate Reader, Molecular Devices, LLC). A standard curve was generated through the sequential dilution of rabbit blood. Finally, the number of erythrocytes was measured using a hematology analyzer (XP-300, Sysmex).

Series [1] has as its system human thrombus formation in vitro. As to the kind of experiment: In vitro human blood perfusion in flow chamber on collagen and tissue factor (70/s). Type of series: cell-based. Particulars: rivaroxaban 1 μmol/L, low-shear 70/s. The method, then:
The Ethics Committee of the University of Miyazaki approved this study (approval number O-1160). The Collagen Reagent HORM (Takeda Pharmaceutical, 20 μg/mL) and recombinant tissue factor (Dade Innovin, ×1000, Siemens) were immobilized on glass coverslips (24 × 50 mm) in parallel-plate flow chambers, as described above. Blood from healthy human volunteers who were not on medication was collected using 21-gauge needles into plastic syringes containing a corn trypsin inhibitor (Molecular Innovations, final concentration 10 μg/mL). Anticoagulated whole blood was used for the perfusion. The solvent (n = 10), FXIa inhibitor (ONO-1600586, 3 μmol/L, n = 10) or FXa inhibitor (rivaroxaban, 1 μmol/L, n = 10), and mepacrine (Sigma-Aldrich, final concentration 5 μM) were added to the blood before perfusion. Blood samples were perfused through the chamber using a syringe pump (KDS100, KD Scientific Inc) at a constant flow rate (15 mL/h) to achieve wall shear rates of 70/s. Finally, the surface covering area, fibrin-immunopositive area, and the number of neutrophils were analyzed as described above.
The pre-and postperfused blood samples were collected into a tube containing 3.8% sodium citrate anticoagulant (9:1 v/v). Plasma samples were centrifuged at 1500 × g for 15 minutes at room temperature. FXIa and FXa activities were measured using an automatic blood coagulation analyzer (ACL-TOP, Werfen), as well as FXI-deficient plasma (HemosIL Factor XI Deficient Plasma and HemosIL SynthASil APTT, Werfen) and FX-deficient plasma (HemosIL Factor X Deficient Plasma and HemosIL RecombiPlasTin, Werfen). The plasma levels of prothrombin fragment 1 + 2 were measured using an enzyme-linked immunosorbent assay (Enzygnost F1 + 2 Monoclonal, Siemens).

Series [2] concerns PT and aPTT. As to the kind of experiment: PT and aPTT of human blood with inhibitor added in vitro. In kind it is biochemical. Particulars: ONO-1600586 3 μmol/L, rivaroxaban 1 μmol/L.
The test system of series [3] is PT and aPTT. Put plainly: PT and aPTT after oral administration in rabbit stasis model. In kind it is in vivo. Particulars: rabbits, stasis model, 1, 3, and 7 hours; ONO-1600586 50 mg/mL, rivaroxaban 15 mg/mL (so in the source). The protocol: The protocols of venous thrombosis by stasis were as follows (Supplementary Figure 4). First, fasting rabbits were orally administered a solvent as a control (n = 8), a FXIa inhibitor (ONO-1600586, 50 mg/kg, n = 8), or a FXa inhibitor (rivaroxaban, 15 mg/kg, n = 8) using a Nelaton catheter of 5 mm diameter (IZUMO Health Co, Ltd) 60 minutes before thrombus formation. The process of thrombus formation was performed under general anesthesia through the subcutaneous injection of a mixture of medetomidine hydrochloride (0.08 mg/kg body weight), butorphanol tartrate (0.2 mg/kg), and midazolam (0.4 mg/kg).
Blood samples were collected from the central ear arteries of the rabbits before and 1, 3, and 7 hours after administering the solvent, ONO-1600586, and rivaroxaban in 3.8% sodium citrate (9:1 v/v) using 21-gauge needles. Plasma samples were centrifuged at 1500 × g for 15 minutes at room temperature. PT and aPTT were measured using a coagulation timer (KC-1 Delta, Tcoag Ireland Ltd) and reagents (aPTT: ACTIN, Siemens; PT: THROMBOCHECK PT+, Sysmex). Data are expressed as a ratio of PT and aPTT to those before administration.

The structures appear in SMILES notation.

Consider `O=C(NC[C@H]1CN(c2ccc(N3CCOCC3=O)cc2)C(=O)O1)c1ccc(Cl)s1` [rivaroxaban], for which, in the series on skin bleeding (15 mg/kg oral), the “bleeding time compared with the control” value is listed as “significantly prolonged” and the “bleeding volume compared with the control” value is listed as “increased”. For the same molecule, in the series with skin bleeding, the bleeding time result is listed as “prolonged bleeding time” and the bleeding volume entry is “increased bleeding volume dose-dependently”. In the series on skin bleeding (listed as Rivaroxaban), the bleeding time result is “dose-dependently prolonged” and the bleeding volume result was “increased”. Further, in series [1] (ONO-1600586 3 μM), the “fibrin formation in the flow chamber” value was “markedly decreased”. Moreover, in series [1] (ONO-1600586 3 μmol/L), the leukocyte adhesion entry is given as “did not affect”, the “plasma levels of prothrombin fragment 1 + 2 after perfusion” value is given as “reduced” and the platelet covering area entry is given as “did not affect”. In series [1], the “FXa activity in the plasma after perfusion” value was “reduced”. Besides, in the series on PT and aPTT [2], the “PT compared with control” value was determined as 1.9 fold and the “aPTT compared with control” value is on record as 1.8 fold. In the series on PT and aPTT [2] (n = 8), this molecule registered a PT of 19 ± 3 s and an aPTT of 62 ± 5 s. Moreover, in the series on PT and aPTT [3], the “PT after oral administration” value was “prolonged” and the “aPTT after oral administration” value is “prolonged”.
